# In PubChem BioAssay (NCI):
#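 Test compounds were applied to cells in 96-well plates for 48 hours at 5 doses. Abbreviation: GI50, concentration required for 50% inhibition of growth. The concentration for full growth arrest is given as TGI.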
# How the values were obtained:
# Experiment in all cases: DTP human tumour cell line panel, 48 h
# SK-MEL-2 melanoma = test system: SK-MEL-2 melanoma
# TK-10 renal = test system: TK-10 renal
# HCT-116 colon = test system: HCT-116 colon
# A549 NSCLC = test system: A549 NSCLC
# NCI-H23 lung = test system: NCI-H23 lung
# SK-MEL-28 melanoma = test system: SK-MEL-28 melanoma
# SR leukemia = test system: SR leukemia
# MOLT-4 leukemia = test system: MOLT-4 leukemia
# OVCAR-8 ovarian = test system: OVCAR-8 ovarian
# UO-31 renal = test system: UO-31 renal
# MDA-MB-231 breast = test system: MDA-MB-231 breast
# ACHN renal = test system: ACHN renal
# SNB-19 CNS = test system: SNB-19 CNS
# SK-OV-3 ovarian = test system: SK-OV-3 ovarian
# LOX IMVI melanoma = test system: LOX IMVI melanoma
# NCI/ADR-RES ovarian = test system: NCI/ADR-RES ovarian
# CCRF-CEM leukemia = test system: CCRF-CEM leukemia
# RPMI-8226 leukemia = test system: RPMI-8226 leukemia
# HS 578T breast = test system: HS 578T breast
# MALME-3M melanoma = test system: MALME-3M melanoma
# NCI-H460 lung = test system: NCI-H460 lung
# UACC-257 melanoma = test system: UACC-257 melanoma
# HCT-15 colon = test system: HCT-15 colon
# HOP-92 NSCLC = test system: HOP-92 NSCLC
# SN12C renal = test system: SN12C renal
# RXF 393 renal = test system: RXF 393 renal
# HCC-2998 colon = test system: HCC-2998 colon
# PC-3 prostate = test system: PC-3 prostate
# CAKI-1 renal = test system: CAKI-1 renal
# NCI-H522 lung = test system: NCI-H522 lung
# UACC-62 melanoma = test system: UACC-62 melanoma
# M14 melanoma = test system: M14 melanoma
# BT-549 breast = test system: BT-549 breast
# 786-0 renal = test system: 786-0 renal
# IGROV1 ovarian = test system: IGROV1 ovarian
# OVCAR-3 ovarian = test system: OVCAR-3 ovarian
# COLO 205 colon = test system: COLO 205 colon
# HT29 colon = test system: HT29 colon
# NCI-H226 lung = test system: NCI-H226 lung
# HOP-62 NSCLC = test system: HOP-62 NSCLC
# OVCAR-5 ovarian = test system: OVCAR-5 ovarian
# K-562 leukemia = test system: K-562 leukemia
# SK-MEL-5 melanoma = test system: SK-MEL-5 melanoma
# SW-620 colon = test system: SW-620 colon
# SF-539 CNS = test system: SF-539 CNS
# KM12 colon = test system: KM12 colon
# SF-295 CNS = test system: SF-295 CNS
# A498 renal = test system: A498 renal
# MCF7 breast = test system: MCF7 breast
# EKVX NSCLC = test system: EKVX NSCLC
# SNB-75 CNS = test system: SNB-75 CNS
# T-47D breast = test system: T-47D breast
# MDA-MB-435 = test system: MDA-MB-435
# OVCAR-4 ovarian = test system: OVCAR-4 ovarian
# U251 CNS = test system: U251 CNS
# DU-145 prostate = test system: DU-145 prostate
# SF-268 CNS = test system: SF-268 CNS
smiles,measurement,setting,value
O=c1oc2ccc(Br)cc2c(=O)n1-c1ccc(F)cc1F,GI50,SK-MEL-2 melanoma,2.12 µM
same,TGI,SK-MEL-2 melanoma,6.13 µM
same,GI50,TK-10 renal,4.53 µM
same,TGI,TK-10 renal,19.2 µM
same,GI50,HCT-116 colon,2.48 µM
same,TGI,HCT-116 colon,8.37 µM
same,GI50,A549 NSCLC,3.17 µM
same,TGI,A549 NSCLC,> 100 µM
same,GI50,NCI-H23 lung,2.55 µM
same,TGI,NCI-H23 lung,10.1 µM
same,GI50,SK-MEL-28 melanoma,1.04 µM
same,TGI,SK-MEL-28 melanoma,5.8 µM
same,GI50,SR leukemia,2.67 µM
same,TGI,SR leukemia,> 100 µM
same,GI50,MOLT-4 leukemia,3.12 µM
same,TGI,MOLT-4 leukemia,> 100 µM
same,GI50,OVCAR-8 ovarian,2.81 µM
same,TGI,OVCAR-8 ovarian,24.2 µM
same,GI50,UO-31 renal,1.28 µM
same,TGI,UO-31 renal,5.93 µM
same,GI50,MDA-MB-231 breast,2.11 µM
same,TGI,MDA-MB-231 breast,6.96 µM
same,GI50,ACHN renal,2.44 µM
same,TGI,ACHN renal,7.99 µM
same,GI50,SNB-19 CNS,2.3 µM
same,TGI,SNB-19 CNS,> 100 µM
same,GI50,SK-OV-3 ovarian,0.398 µM
same,TGI,SK-OV-3 ovarian,3.38 µM
same,GI50,LOX IMVI melanoma,2.79 µM
same,TGI,LOX IMVI melanoma,12.4 µM
same,GI50,NCI/ADR-RES ovarian,2.9 µM
same,TGI,NCI/ADR-RES ovarian,30.5 µM
same,GI50,CCRF-CEM leukemia,3.91 µM
same,TGI,CCRF-CEM leukemia,> 100 µM
same,GI50,RPMI-8226 leukemia,1.66 µM
same,TGI,RPMI-8226 leukemia,7.07 µM
same,GI50,HS 578T breast,2.11 µM
same,TGI,HS 578T breast,8.01 µM
same,GI50,MALME-3M melanoma,1.59 µM
same,TGI,MALME-3M melanoma,5.87 µM
same,GI50,NCI-H460 lung,2.79 µM
same,TGI,NCI-H460 lung,25.6 µM
same,GI50,UACC-257 melanoma,1.78 µM
same,TGI,UACC-257 melanoma,6.67 µM
same,GI50,HCT-15 colon,3.04 µM
same,TGI,HCT-15 colon,12.8 µM
same,GI50,HOP-92 NSCLC,0.425 µM
same,TGI,HOP-92 NSCLC,4.74 µM
same,GI50,SN12C renal,2 µM
same,TGI,SN12C renal,8.61 µM
same,GI50,RXF 393 renal,2.27 µM
same,TGI,RXF 393 renal,6.34 µM
same,GI50,HCC-2998 colon,3.54 µM
same,TGI,HCC-2998 colon,18.4 µM
same,GI50,PC-3 prostate,2.85 µM
same,TGI,PC-3 prostate,12.7 µM
same,GI50,CAKI-1 renal,1.72 µM
same,TGI,CAKI-1 renal,6.1 µM
same,GI50,NCI-H522 lung,2.6 µM
same,TGI,NCI-H522 lung,14.9 µM
same,GI50,UACC-62 melanoma,1.01 µM
same,TGI,UACC-62 melanoma,4.51 µM
same,GI50,M14 melanoma,1.59 µM
same,TGI,M14 melanoma,7.55 µM
same,GI50,BT-549 breast,1.79 µM
same,TGI,BT-549 breast,5.5 µM
same,GI50,786-0 renal,3.23 µM
same,TGI,786-0 renal,11.6 µM
same,GI50,IGROV1 ovarian,1.94 µM
same,TGI,IGROV1 ovarian,24.8 µM
same,GI50,OVCAR-3 ovarian,2.41 µM
same,TGI,OVCAR-3 ovarian,11.4 µM
same,GI50,COLO 205 colon,3.92 µM
same,TGI,COLO 205 colon,16.4 µM
same,GI50,HT29 colon,3.45 µM
same,TGI,HT29 colon,27.8 µM
same,GI50,NCI-H226 lung,2.32 µM
same,TGI,NCI-H226 lung,13.8 µM
same,GI50,HOP-62 NSCLC,2.45 µM
same,TGI,HOP-62 NSCLC,8.3 µM
same,GI50,OVCAR-5 ovarian,3.79 µM
same,TGI,OVCAR-5 ovarian,> 100 µM
same,GI50,K-562 leukemia,2.4 µM
same,TGI,K-562 leukemia,> 100 µM
same,GI50,SK-MEL-5 melanoma,1.38 µM
same,TGI,SK-MEL-5 melanoma,2.82 µM
same,GI50,SW-620 colon,2.96 µM
same,TGI,SW-620 colon,16.7 µM
same,GI50,SF-539 CNS,2.17 µM
same,TGI,SF-539 CNS,9.21 µM
same,GI50,KM12 colon,2.75 µM
same,TGI,KM12 colon,8.49 µM
same,GI50,SF-295 CNS,1.88 µM
same,TGI,SF-295 CNS,3.71 µM
same,GI50,A498 renal,1.16 µM
same,TGI,A498 renal,3.02 µM
same,GI50,MCF7 breast,2.57 µM
same,TGI,MCF7 breast,> 100 µM
same,GI50,EKVX NSCLC,2.03 µM
same,TGI,EKVX NSCLC,9.32 µM
same,GI50,SNB-75 CNS,1.02 µM
same,TGI,SNB-75 CNS,3.98 µM
same,GI50,T-47D breast,1.77 µM
same,TGI,T-47D breast,6.94 µM
same,GI50,MDA-MB-435,2.85 µM
same,TGI,MDA-MB-435,10.4 µM
same,GI50,OVCAR-4 ovarian,1.65 µM
same,TGI,OVCAR-4 ovarian,8.45 µM
same,GI50,U251 CNS,2.51 µM
same,TGI,U251 CNS,31.5 µM
same,GI50,DU-145 prostate,3.82 µM
same,TGI,DU-145 prostate,27.7 µM
same,GI50,SF-268 CNS,2.62 µM
same,TGI,SF-268 CNS,21.8 µM
